Here are results for one molecule from patent publication US20020037858A1, “Pharmaceutical compositions comprising moexipril magnesium” (priority 2000, published 2002).

The series in a line: Stability of moexipril magnesium salt in solid compositions. It counts as physicochemical. Conditions: solid compositions without an alkaline stabilizing compound in the final composition.

As to `CCOC(=O)[C@H](CCc1ccccc1)N[C@@H](C)C(=O)N1Cc2cc(OC)c(OC)cc2C[C@H]1C(=O)O.[Mg]` [moexipril magnesium], the “stability of the salt” value is given as “sufficiently stable to enable stable solid compositions”.
